Consider 3 molecules from patent US7977328B2, “Heteroaryl benzamide derivatives for use as GLK activators in the treatment of diabetes” (AstraZeneca AB, priority 2005, dated 2011).

Usually melting point stands for the temperature, or range, at which the solid turns liquid. In general, EC50 refers to the concentration at which the effect is half-maximal.

One data set has as its system Zucker obese fa/fa rats. As to the kind of experiment: Oral Glucose Tolerance Test (OGTT). The data set is classed as in vivo, rat. Particulars: 10 mg/kg, given orally 120 minutes before glucose 2 g/kg; Zucker obese fa/fa rats on high fat diet. The procedure:
Oral glucose tolerance tests were done on conscious Zucker obese fa/fa rats (age 12-13 weeks or older) fed a high fat diet (45% kcal fat) for at least two weeks prior to experimentation. The animals were fasted for 2 hours before use for experiments. A test compound or a vehicle was given orally 120 minutes before oral administration of a glucose solution at a dose of 2 g/kg body weight. Blood glucose levels were measured using a Accucheck glucometer from tail bled samples taken at different time points before and after administration of glucose (time course of […]). A time curve of the blood glucose levels was generated and the area-under-the-curve (AUC) for 120 minutes was calculated (the time of glucose administration being time zero). Percent reduction in glucose excursion was determined using the AUC in the vehicle-control group as zero percent reduction.

The target in data set [1] is T1, recombinant human pancreatic GLK (Homo sapiens, UniProt P35557).
T1 sequence (P35557 1-465): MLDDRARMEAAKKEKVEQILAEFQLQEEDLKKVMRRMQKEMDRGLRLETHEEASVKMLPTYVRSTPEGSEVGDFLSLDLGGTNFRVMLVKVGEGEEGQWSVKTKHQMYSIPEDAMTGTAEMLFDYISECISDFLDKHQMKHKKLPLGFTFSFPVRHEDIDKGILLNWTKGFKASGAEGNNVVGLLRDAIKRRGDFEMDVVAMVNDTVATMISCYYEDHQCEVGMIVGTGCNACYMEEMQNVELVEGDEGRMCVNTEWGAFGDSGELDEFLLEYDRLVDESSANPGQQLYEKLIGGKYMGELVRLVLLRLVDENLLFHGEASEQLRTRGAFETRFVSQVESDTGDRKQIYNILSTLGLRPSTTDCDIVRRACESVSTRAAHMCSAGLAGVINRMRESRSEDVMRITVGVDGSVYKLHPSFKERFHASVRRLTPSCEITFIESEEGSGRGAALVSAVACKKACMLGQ
As to the kind of experiment: biochemical.

`Cc1cnc(NC(=O)c2cc(Oc3ccc(C(=O)N4CCC4)nc3)cc(OC(C)C)c2)cn1` [Example 37, 3-{[6-(Azetidin-1-ylcarbonyl)pyridin-3-yl]oxy}-5-[(1-methylethyl)oxy]-N-(5-methylpyrazin-2-yl)benzamide] gave a melting point of 125.7 °C.

As for `Cc1cnc(NC(=O)c2cc(Oc3cnc(C(=O)N4CCC4)cn3)cc(O[C@@H](C)CO)c2)cn1` [Example 59, 3-{[5-(Azetidin-1-ylcarbonyl)pyrazin-2-yl]oxy}-5-{[(1S)-2-hydroxy-1-methylethyl]oxy}-N-(5-methylpyrazin-2-yl)benzamide], the melting point was 100.6 °C. Molecule `COC[C@H](C)Oc1cc(Oc2ccc(C(=O)N3CCC3)nc2)cc(C(=O)Nc2ccn(C)n2)c1` [Example 3, 3-{[6-(Azetidin-1-ylcarbonyl)pyridin-3-yl]oxy}-5-{[(1S)-1-methyl-2-(methyloxy)ethyl]oxy}-N-(1-methyl-1H-pyrazol-3-yl)benzamide] yielded a melting point of 132.7 °C. In addition, in the data set with Zucker obese fa/fa rats, the “OGTT activity (percent reduction in glucose excursion, AUC)” value was 54%. For the same molecule, the EC50 in data set [1] was 31 nM.
